The results in this text go back to PubChem BioAssay AID256 (DTP/NCI, 2004).

The experiment concerns CD2F1 mice, L1210 leukemia ip, survival T/C. Kind of experiment: NCI In Vivo Anticancer Drug Screen. Data for tumor model L1210 Leukemia (intraperitoneal) in CD2F1 (CDF1) mice. Conditions: higher = longer survival. The essentials:
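Activity against a transplanted murine tumor was judged by comparing the compound group with a vehicle group. The outcome in the treated animals was divided by that in the controls.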

[1] abbreviates: endpoint: mean survival time, dose: 100.0 mg/kg/injection, schedule: Q01DX009 (ip), vehicle: saline with Tween-80.
Setting [2] is: endpoint: mean survival time, dose: 200.0 mg/kg/injection, schedule: Q01DX009 (ip), vehicle: saline with Tween-80.
Where [3] appears, read: endpoint: mean survival time, dose: 400.0 mg/kg/injection, schedule: Q01DX009 (ip), vehicle: saline with Tween-80.
[4] abbreviates: endpoint: mean survival time, dose: 100.0 mg/kg/injection, schedule: Q04DX002 (ip), vehicle: saline with Tween-80.
The mark [5] stands for this setting: endpoint: mean survival time, dose: 200.0 mg/kg/injection, schedule: Q04DX002 (ip), vehicle: saline with Tween-80.
The mark [6] stands for this setting: endpoint: mean survival time, dose: 400.0 mg/kg/injection, schedule: Q04DX002 (ip), vehicle: saline with Tween-80.
[7] abbreviates: endpoint: mean survival time, dose: 100.0 mg/kg/injection, schedule: Q04DX003 (ip), vehicle: saline with Tween-80.
Setting [8] is: endpoint: mean survival time, dose: 200.0 mg/kg/injection, schedule: Q04DX003 (ip), vehicle: saline with Tween-80.
[9] abbreviates: endpoint: mean survival time, dose: 400.0 mg/kg/injection, schedule: Q04DX003 (ip), vehicle: saline with Tween-80.

Several values for one entry are separate records, joined by “and”; a condition that tells them apart may be missing. Identical values can stand only once. Inconclusive results and toxic doses are left out. Residues, ends and D or L forms follow the SMILES beside them. *: point of attachment. Trt = c1ccc(C(c2ccccc2)(c2ccccc2)*)cc1; Cbz = O=C(OCc1ccccc1)*

Consider `CC1CN=C(c2ccc(NC(=O)c3ccc(C(=O)Nc4ccc(C5=NCC(C)N5)cc4)cc3)cc2)N1` (centres undefined), for which the T/C (endpoint: mean survival time, dose: 12.5 mg/kg/injection, schedule: Q01DX009 (ip), vehicle: Klucel (hydroxypropylcellulose) (HPC)) was 212 % of control; the T/C (endpoint: mean survival time, dose: 25.0 mg/kg/injection, schedule: Q01DX009 (ip), vehicle: Klucel (hydroxypropylcellulose) (HPC)) was 269 % of control; the T/C (endpoint: mean survival time, dose: 50.0 mg/kg/injection, schedule: Q01DX009 (ip), vehicle: Klucel (hydroxypropylcellulose) (HPC)) is 290 % of control; the T/C (endpoint: mean survival time, dose: 100.0 mg/kg/injection, schedule: Q01DX009 (ip), vehicle: Klucel (hydroxypropylcellulose) (HPC)) is 305 % of control; the T/C (endpoint: mean survival time, dose: 200.0 mg/kg/injection, schedule: Q01DX009 (ip), vehicle: Klucel (hydroxypropylcellulose) (HPC)) is 333 % of control; the T/C (endpoint: mean survival time, dose: 400.0 mg/kg/injection, schedule: Q01DX009 (ip), vehicle: Klucel (hydroxypropylcellulose) (HPC)) is 288 % of control.

Regarding `O=[N+]([O-])c1cccnc1Oc1cccc(C(F)(F)F)c1`, the T/C runs as follows: (endpoint: mean survival time, dose: 100.0 mg/kg/injection, schedule: Q01DX009 (ip), vehicle: saline) 95 % of control; (endpoint: mean survival time, dose: 200.0 mg/kg/injection, schedule: Q01DX009 (ip), vehicle: saline) 96 % of control; (endpoint: mean survival time, dose: 400.0 mg/kg/injection, schedule: Q01DX009 (ip), vehicle: saline) 91 % of control.

Regarding `COc1ccccc1NC(=S)NCCO`, the T/C by setting is: under setting [1], 97 % of control; under setting [2], 103 % of control; under setting [3], 98 % of control.

On to `COC1=CCC2=C(CCO2)C1`, for which the T/C is 91 % of control (endpoint: mean survival time, dose: 100.0 mg/kg/injection, schedule: Q01DX009 (ip), vehicle: acetone); 98 % of control (endpoint: mean survival time, dose: 200.0 mg/kg/injection, schedule: Q01DX009 (ip), vehicle: acetone); 100 % of control (endpoint: mean survival time, dose: 400.0 mg/kg/injection, schedule: Q01DX009 (ip), vehicle: acetone).

Regarding `NC(=O)c1ccc([N+](=O)[O-])cc1Cl`, the T/C under setting [4] is 102 % of control, the T/C under setting [5] is 94 % of control and the T/C under setting [6] was 94 % of control.

For `CC1(C)C2CCC1(C)C(OCCCN=C(N)CSS(=O)(=O)O)C2` (centres undefined), the T/C is 95 % of control (endpoint: mean survival time, dose: 9.4 mg/kg/injection, schedule: Q04DX002 (ip), vehicle: saline with Tween-80); 109 % of control (endpoint: mean survival time, dose: 18.7 mg/kg/injection, schedule: Q04DX002 (ip), vehicle: saline with Tween-80); 112 % of control (endpoint: mean survival time, dose: 37.5 mg/kg/injection, schedule: Q04DX002 (ip), vehicle: saline with Tween-80).

Consider `COC(=O)C(CSC(c1ccccc1)(c1ccccc1)c1ccccc1)NC(=O)C(CC(N)=O)NC(=O)OCc1ccccc1` (stereo not drawn) (Cbz-Asn-Cys(Trt)-OMe; configuration not given here), for which the T/C (endpoint: median survival time, dose: 12.5 mg/kg/injection, schedule: Q01DX009 (ip), vehicle: distilled water + Tween-80) is 101 % of control; the T/C (endpoint: median survival time, dose: 25.0 mg/kg/injection, schedule: Q01DX009 (ip), vehicle: distilled water + Tween-80) was 108 % of control; the T/C (endpoint: median survival time, dose: 50.0 mg/kg/injection, schedule: Q01DX009 (ip), vehicle: distilled water + Tween-80) is 113 % of control and 107 % of control; the T/C (endpoint: median survival time, dose: 100.0 mg/kg/injection, schedule: Q01DX009 (ip), vehicle: distilled water + Tween-80) was 114 % of control; the T/C (endpoint: median survival time, dose: 200.0 mg/kg/injection, schedule: Q01DX009 (ip), vehicle: distilled water + Tween-80) is 162 % of control.

Regarding `CC(=O)OC1CC2C[CH]([Hg][Cl])C1C2` (centres undefined), the T/C is 95 % of control (endpoint: mean survival time, dose: 6.25 mg/kg/injection, schedule: Q04DX003 (ip), vehicle: saline with Tween-80); 111 % of control (endpoint: mean survival time, dose: 12.5 mg/kg/injection, schedule: Q04DX003 (ip), vehicle: saline with Tween-80); 86 % of control (endpoint: mean survival time, dose: 25.0 mg/kg/injection, schedule: Q04DX003 (ip), vehicle: saline with Tween-80).

`COc1cc(Br)c(CC2c3cc(OC)c(OC)cc3CCN2C)cc1OC` (centres undefined): the T/C is 101 % of control (endpoint: mean survival time, dose: 100.0 mg/kg/injection, schedule: Q01DX001 (ip), vehicle: saline) and 101 % of control (endpoint: mean survival time, dose: 200.0 mg/kg/injection, schedule: Q01DX001 (ip), vehicle: saline).

On to `SCc1c(Cl)c(Cl)c(Cl)c(Cl)c1Cl`, for which the T/C under setting [4] is 94 % of control, the T/C under setting [5] was 87 % of control and the T/C under setting [6] was 97 % of control.

Take `Cn1ncc2c(NCc3ccccc3)ncnc21`: the T/C runs as follows: (endpoint: mean survival time, dose: 18.0 mg/kg/injection, schedule: Q01DX009 (ip), vehicle: saline with Tween-80) 114 % of control; (endpoint: mean survival time, dose: 37.5 mg/kg/injection, schedule: Q01DX009 (ip), vehicle: saline with Tween-80) 115 % of control.

As for `C/C=C/CC(C/C=C/C)C1CC[N-]CC1.C/C=C/CC(C/C=C/C)C1CC[N-]CC1.[Cl][Pt+2]([Cl])([Cl])[Cl]`, the T/C by setting is: (endpoint: mean survival time, dose: 12.5 mg/kg/injection, schedule: Q01DX009 (ip), vehicle: other) 93 % of control; (endpoint: mean survival time, dose: 100.0 mg/kg/injection, schedule: Q01DX009 (ip), vehicle: other) 88 % of control.

`Cn1c(=O)c2c(ncn2C(C=O)OC(C=O)CO)n(C)c1=O` (centres undefined): the T/C reads like this: (endpoint: mean survival time, dose: 12.5 mg/kg/injection, schedule: Q01DX005 (ip), vehicle: water) 101 % of control; (endpoint: mean survival time, dose: 25.0 mg/kg/injection, schedule: Q01DX005 (ip), vehicle: water) 104 % of control; (endpoint: mean survival time, dose: 50.0 mg/kg/injection, schedule: Q01DX005 (ip), vehicle: water) 110 % of control; (endpoint: mean survival time, dose: 100.0 mg/kg/injection, schedule: Q01DX005 (ip), vehicle: water) 112 % of control.

For the compound `Cc1ccc(S(=O)(=O)O/N=C2/CCC(C)(C)c3ccccc32)cc1`, the T/C under setting [1] is 102 % of control; the T/C under setting [7] was 102 % of control; the T/C under setting [2] is 102 % of control; the T/C under setting [8] was 103 % of control; the T/C under setting [3] was 94 % of control; the T/C under setting [9] is 96 % of control.

For `C1=Cc2ccccc2/C1=C/c1ccc(/C=C2\C=Cc3ccccc32)cc1`, the T/C reads like this: under setting [1], 98 % of control; under setting [2], 89 % of control; (endpoint: mean survival time, dose: 700.0 mg/kg/injection, schedule: Q01DX009 (ip), vehicle: saline with Tween-80) 89 % of control.

For `C=CCN(CC=C)N=Nc1ccc(C(N)=O)cc1`, the T/C is 102 % of control (endpoint: mean survival time, dose: 19.75 mg/kg/injection, schedule: Q01DX009 (ip), vehicle: Klucel (hydroxypropylcellulose) (HPC)); 102 % of control (endpoint: mean survival time, dose: 39.5 mg/kg/injection, schedule: Q01DX009 (ip), vehicle: Klucel (hydroxypropylcellulose) (HPC)); 114 % of control and 110 % of control (endpoint: mean survival time, dose: 79.0 mg/kg/injection, schedule: Q01DX009 (ip), vehicle: Klucel (hydroxypropylcellulose) (HPC)); 100 % of control (endpoint: mean survival time, dose: 118.0 mg/kg/injection, schedule: Q01DX009 (ip), vehicle: Klucel (hydroxypropylcellulose) (HPC)); 112 % of control (endpoint: mean survival time, dose: 177.0 mg/kg/injection, schedule: Q01DX009 (ip), vehicle: Klucel (hydroxypropylcellulose) (HPC)).

For the compound `CC1=CCC=C(CNc2ncnc3nc[nH]c23)C1`, under setting [7], the T/C was 87 % of control.

Consider `Clc1c(Cl)c(Cl)c(Cl)c(Cl)c1Cl`, for which the T/C is, setting by setting: under setting [1], 97 % of control; under setting [7], 97 % of control; under setting [2], 100 % of control; under setting [8], 94 % of control; under setting [3], 103 % of control; under setting [9], 102 % of control.

With `COC1OCCC(C)O1` (centres undefined), the T/C runs as follows: (endpoint: mean survival time, dose: 100.0 mg/kg/injection, schedule: Q04DX002 (ip), vehicle: saline) 104 % of control; (endpoint: mean survival time, dose: 200.0 mg/kg/injection, schedule: Q04DX002 (ip), vehicle: saline) 104 % of control; (endpoint: mean survival time, dose: 400.0 mg/kg/injection, schedule: Q04DX002 (ip), vehicle: saline) 107 % of control.

Turning to `CN(C)CC1CCCCCC(CN(C)C)C1=O` (centres undefined), the T/C (endpoint: mean survival time, dose: 75.0 mg/kg/injection, schedule: Q01DX001 (ip), vehicle: other) is 102 % of control and the T/C (endpoint: mean survival time, dose: 150.0 mg/kg/injection, schedule: Q01DX001 (ip), vehicle: other) is 106 % of control.

With `Cc1c(C(=O)O)cc([N+](=O)[O-])cc1[N+](=O)[O-]`, the T/C is, setting by setting: under setting [1], 102 % of control; under setting [2], 100 % of control; under setting [3], 96 % of control.

As for `CCOC(=O)CC(Cc1cc(OC)ccc1OC)(C(C)=O)C(C)=O`, the T/C by setting is: (endpoint: mean survival time, dose: 12.5 mg/kg/injection, schedule: Q01DX009 (ip), vehicle: water) 100 % of control; (endpoint: mean survival time, dose: 25.0 mg/kg/injection, schedule: Q01DX009 (ip), vehicle: water) 110 % of control; (endpoint: mean survival time, dose: 50.0 mg/kg/injection, schedule: Q01DX009 (ip), vehicle: water) 102 % of control; (endpoint: mean survival time, dose: 100.0 mg/kg/injection, schedule: Q01DX009 (ip), vehicle: water) 95 % of control; (endpoint: mean survival time, dose: 200.0 mg/kg/injection, schedule: Q01DX009 (ip), vehicle: water) 114 % of control.

Turning to `C=C(Cl)CSCCO`, the T/C reads like this: under setting [1], 100 % of control; under setting [2], 104 % of control; under setting [3], 98 % of control.
